Assay results taken from patent publication US5705336A, “Assay for sensitivity of tumors to DNA-platinating chemotherapy” (The United States of America as represented by the …, priority 1995, dated 1998).

Assays:
MOLT-4 [1] = assay: inhibition of growth of MOLT-4 cells, 3 day continuous cisplatin exposure; format: cell-based, human; conditions: continuous exposure to cisplatin for 3 days, 50% reduction in cell number
Method: (§1) The expression of total ERCC1 mRNA, exon VIII^- mRNA and XPA mRNA was examined in three human T lymphocyte cell lines (HuT 78, H9 and MOLT-4), using essentially the methods described in Example 1. The cells were obtained from the American Type Culture Collection, Rockville, Md. Cells were cultured in RPMI-1640 medium supplemented with 10% heat-inactivated calf serum, 100 μg/ml penicillin, 100 μg/ml streptomycin and 2 mM glutamine.
(§2) All cell lines were assayed for sensitivity to cisplatin by measurement of the inhibition of growth following 3 day cisplatin exposures ranging from 0.5 to 100 μM. Cell lines were seeded at an initial cell density of 5×10^4 cells/ml, After continuous contact with drug for 3 days, cell counts obtained by Coulter counter were expressed as a percentage of counts obtained from aliquots of control cells, cultured in the absence of drug. Cells treated similarly but for the absence of drug served as controls. IC50 values were assessed as those drug levels effecting a 50% reduction in cell number as compared to Untreated cells.

MOLT-4 [2] = conditions: removed in 6 hrs following a 1 hr, 10 μM exposure, taken from ref. 26; cited from earlier work
H9 [3] = assay: inhibition of growth of H9 cells, 3 day continuous cisplatin exposure; format: cell-based, human; conditions: continuous exposure to cisplatin for 3 days, 50% reduction in cell number
Method: as §1, §2

HuT 78 [4] = conditions: platination level that reduces CAT activity to 37% of control, taken from ref. 26; cited from earlier work
HuT 78 [5] = assay: inhibition of growth of HuT 78 cells, 3 day continuous cisplatin exposure; format: cell-based, human; conditions: continuous exposure to cisplatin for 3 days, 50% reduction in cell number
Method: as §1, §2

H9 [6] = conditions: removed in 6 hrs following a 1 hr, 10 μM exposure, taken from ref. 26; cited from earlier work
HuT 78 [7] = conditions: removed in 6 hrs following a 1 hr, 10 μM exposure, taken from ref. 26; cited from earlier work
[8] = tested on: three human T lymphocyte cell lines (HuT 78, H9 and MOLT-4); assay: cisplatin sensitivity compared across the three T cell lines; format: cell-based; conditions: across HuT 78, H9 and MOLT-4
Method: as §1, §2

MOLT-4 [9] = conditions: platination level that reduces CAT activity to 37% of control, taken from ref. 26; cited from earlier work
H9 [10] = conditions: platination level that reduces CAT activity to 37% of control, taken from ref. 26; cited from earlier work

SMILES: N.N.[Cl][Pt][Cl] [cisplatin]
- IC50 (MOLT-4 [1]): 330 nM
- Cellular DNA Repair (pg Pt/μg DNA removed in 6 hrs) (MOLT-4 [2]): 2.3 pg Pt/μg DNA
- IC50 (H9 [3]): 450 nM
- Reactivation of platinated plasmid Bo (HuT 78 [4]): 22 adducts/plasmid
- IC50 (HuT 78 [5]): 830 nM
- Cellular DNA Repair (pg Pt/μg DNA removed in 6 hrs) (H9 [6]): 3.9 pg Pt/μg DNA
- Cellular DNA Repair (pg Pt/μg DNA removed in 6 hrs) (HuT 78 [7]): 5.6 pg Pt/μg DNA
- cisplatin sensitivity varied by [8]: about 3 fold
- Reactivation of platinated plasmid Bo (MOLT-4 [9]): 13 adducts/plasmid
- Reactivation of platinated plasmid Bo (H9 [10]): 18 adducts/plasmid
